Earlier results as cited in patent US11497760B2, “Method for solubilizing poorly water-soluble dietary supplements and pharmaceutically active agents” (ATHENION AG, priority 2016, dated 2022).

Legend:
P-glycoprotein = P-glycoprotein (Homo sapiens, UniProt P08183)
human CYP3A4 = human CYP3A4 (Homo sapiens, UniProt P08684)
Chain of human CYP3A4 (P08684 whole entry): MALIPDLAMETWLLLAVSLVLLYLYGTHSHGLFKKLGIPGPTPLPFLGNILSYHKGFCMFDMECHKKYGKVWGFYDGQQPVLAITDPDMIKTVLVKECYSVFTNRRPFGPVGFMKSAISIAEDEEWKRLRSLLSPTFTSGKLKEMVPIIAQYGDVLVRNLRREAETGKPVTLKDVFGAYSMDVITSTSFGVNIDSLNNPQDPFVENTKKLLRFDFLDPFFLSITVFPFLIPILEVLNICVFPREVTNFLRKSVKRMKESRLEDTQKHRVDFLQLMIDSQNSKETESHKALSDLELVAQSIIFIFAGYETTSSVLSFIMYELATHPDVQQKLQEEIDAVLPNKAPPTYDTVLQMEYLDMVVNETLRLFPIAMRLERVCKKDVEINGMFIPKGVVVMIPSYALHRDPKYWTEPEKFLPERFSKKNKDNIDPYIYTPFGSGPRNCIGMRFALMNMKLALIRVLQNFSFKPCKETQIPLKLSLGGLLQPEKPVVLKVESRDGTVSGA

Chain of P-glycoprotein (P08183 whole entry): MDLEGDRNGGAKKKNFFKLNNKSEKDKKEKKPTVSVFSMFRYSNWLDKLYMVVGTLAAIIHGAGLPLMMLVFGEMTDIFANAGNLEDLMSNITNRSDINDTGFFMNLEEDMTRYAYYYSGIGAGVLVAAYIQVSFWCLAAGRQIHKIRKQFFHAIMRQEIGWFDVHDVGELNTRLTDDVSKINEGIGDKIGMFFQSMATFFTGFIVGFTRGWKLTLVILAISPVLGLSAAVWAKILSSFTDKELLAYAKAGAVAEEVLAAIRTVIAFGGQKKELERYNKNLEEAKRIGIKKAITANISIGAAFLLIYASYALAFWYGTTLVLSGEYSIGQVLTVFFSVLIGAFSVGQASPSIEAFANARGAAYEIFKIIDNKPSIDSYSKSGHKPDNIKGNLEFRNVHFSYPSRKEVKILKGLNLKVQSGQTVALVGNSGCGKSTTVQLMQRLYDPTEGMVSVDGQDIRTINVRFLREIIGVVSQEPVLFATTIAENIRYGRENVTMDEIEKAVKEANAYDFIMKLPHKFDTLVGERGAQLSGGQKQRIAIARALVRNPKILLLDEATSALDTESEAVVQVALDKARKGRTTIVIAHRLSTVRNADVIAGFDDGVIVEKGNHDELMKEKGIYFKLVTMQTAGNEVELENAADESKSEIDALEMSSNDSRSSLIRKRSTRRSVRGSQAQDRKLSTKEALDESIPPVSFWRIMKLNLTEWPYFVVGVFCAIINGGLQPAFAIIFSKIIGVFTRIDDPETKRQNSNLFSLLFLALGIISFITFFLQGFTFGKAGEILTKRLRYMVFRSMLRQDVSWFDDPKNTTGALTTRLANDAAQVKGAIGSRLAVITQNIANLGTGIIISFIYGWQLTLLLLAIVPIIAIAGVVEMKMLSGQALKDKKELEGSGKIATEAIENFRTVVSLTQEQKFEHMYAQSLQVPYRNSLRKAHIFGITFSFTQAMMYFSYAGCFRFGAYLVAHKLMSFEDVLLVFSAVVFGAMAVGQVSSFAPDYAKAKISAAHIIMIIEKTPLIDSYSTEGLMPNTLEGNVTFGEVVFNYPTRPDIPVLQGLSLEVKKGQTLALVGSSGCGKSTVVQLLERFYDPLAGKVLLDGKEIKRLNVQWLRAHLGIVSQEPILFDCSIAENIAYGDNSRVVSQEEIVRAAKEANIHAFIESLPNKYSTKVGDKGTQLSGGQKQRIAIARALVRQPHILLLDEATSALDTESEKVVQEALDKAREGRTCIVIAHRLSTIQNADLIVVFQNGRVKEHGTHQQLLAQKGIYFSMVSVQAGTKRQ

In the case of `O=C(C=CC=Cc1ccc2c(c1)OCO2)N1CCCCC1` [Piperine, 1-[5-(1,3-benzodioxol-5-yl)-1-oxo-2,4-pentadienyl]piperidine], the “inhibition of P-glycoprotein” value (P-glycoprotein) is given as “inhibit” and the “inhibition of human CYP3A4” value (human CYP3A4) is given as “inhibit”.
